Assay results taken from ChEMBL document CHEMBL1201862, “PubChem BioAssay data set” (2004).
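In this assay, cells in 96-well plates receive the compound at five concentrations for 48 hours. Endpoints are linearly interpolated between the surrounding concentrations. The concentration for 50% growth inhibition is given as GI50.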 Active and inactive are the calls of the source. No stated cut-off is given here; in the data, active = GI50 up to about 1.1 µM and inactive = higher.

What was measured:
Test in all cases: NCI anticancer screen, dose series, 48 h
HCT-15 = test system: HCT-15
HL-60 = test system: HL-60
NCI-H226 = test system: NCI-H226
UO-31 = test system: UO-31
SK-MEL-5 = test system: SK-MEL-5
OVCAR-8 = test system: OVCAR-8
HOP-92 = test system: HOP-92
CAKI-1 = test system: CAKI-1
TK-10 = test system: TK-10
K562 = test system: K562
HCT-116 = test system: HCT-116
UACC-257 = test system: UACC-257
COLO 205 = test system: COLO 205
SW-620 = test system: SW-620
SN12C = test system: SN12C
HT-29 = test system: HT-29
SF-295 = test system: SF-295
RXF 393 = test system: RXF 393
SK-OV-3 = test system: SK-OV-3
SNB-75 = test system: SNB-75

## COc1nc(Cl)c(Cl)c(Cl)n1.COc1nc(Cl)nc(Cl)c1Cl
HCT-15
  GI50: 2.19 µM
HL-60
  GI50: 5.47 µM (inactive)
NCI-H226
  GI50: 42.5 µM (inactive)
UO-31
  GI50: 0.893 µM (active)
SK-MEL-5
  GI50: 15.2 µM (inactive)
OVCAR-8
  GI50: 2.89 µM (inactive)
HOP-92
  GI50: 2.31 µM (inactive)
CAKI-1
  GI50: 0.0254 µM (active)
TK-10
  GI50: 8.73 µM (inactive)
K562
  GI50: 0.859 µM (active)
HCT-116
  GI50: 8.2 µM (inactive)
UACC-257
  GI50: 3.83 µM (inactive)
COLO 205
  GI50: 14.2 µM (inactive)
SW-620
  GI50: 3.62 µM (inactive)
SN12C
  GI50: 23.3 µM (inactive)
HT-29
  GI50: 6.9 µM (inactive)
SF-295
  GI50: 7.16 µM (inactive)
RXF 393
  GI50: 10.7 µM (inactive)
SK-OV-3
  GI50: 10.3 µM (inactive)
SNB-75
  GI50: 10.3 µM (inactive)

## O=C(O[C@@H](/C=C/c1ccccc1)P1(=O)N(Cc2ccccc2)[C@H]2CCCC[C@@H]2N1Cc1ccccc1)c1ccccc1
HCT-15
  GI50: 3.28 µM
HL-60
  GI50: 2.39 µM (inactive)
NCI-H226
  GI50: 2.79 µM (inactive)
UO-31
  GI50: 3.01 µM (inactive)
SK-MEL-5
  GI50: 1.93 µM (inactive)
OVCAR-8
  GI50: 4.3 µM (inactive)
HOP-92
  GI50: 2.86 µM (inactive)
CAKI-1
  GI50: 2.66 µM (inactive)
TK-10
  GI50: 3.52 µM (inactive)
K562
  GI50: 3.47 µM (inactive)
HCT-116
  GI50: 3.02 µM (inactive)
UACC-257
  GI50: 2.86 µM (inactive)
COLO 205
  GI50: 1.7 µM (inactive)
SW-620
  GI50: 3.69 µM (inactive)
SN12C
  GI50: 2.53 µM (inactive)
HT-29
  GI50: 3.08 µM (inactive)
SF-295
  GI50: 3.15 µM (inactive)
RXF 393
  GI50: 2 µM (inactive)
SK-OV-3
  GI50: 4.54 µM (inactive)
SNB-75
  GI50: 5.6 µM (inactive)

## CC1(C)C(O)C[C@@H](O)[C@@]2(C)C1CC[C@]1(C)C2C[C@@H](O)[C@@H]2C([C@@]3(C)CC[C@@H](C(C)(C)O)O3)CCC21C (stereo not given in full)
HCT-15
  GI50: 12.6 µM
HL-60
  GI50: 14.2 µM (inactive)
NCI-H226
  GI50: 19.5 µM (inactive)
UO-31
  GI50: 17.5 µM (inactive)
SK-MEL-5
  GI50: 10.4 µM (inactive)
OVCAR-8
  GI50: 18.7 µM (inactive)
HOP-92
  GI50: 9.68 µM (inactive)
CAKI-1
  GI50: 18.3 µM (inactive)
TK-10
  GI50: 27.2 µM (inactive)
K562
  GI50: 35.2 µM (inactive)
HCT-116
  GI50: 17 µM (inactive)
UACC-257
  GI50: 21 µM (inactive)
COLO 205
  GI50: 16.4 µM (inactive)
SW-620
  GI50: 16.5 µM (inactive)
SN12C
  GI50: 13.8 µM (inactive)
HT-29
  GI50: 17.6 µM (inactive)
SF-295
  GI50: 15.7 µM (inactive)
RXF 393
  GI50: 13.4 µM (inactive)
SK-OV-3
  GI50: 15.9 µM (inactive)
SNB-75
  GI50: 15 µM (inactive)
